Patent publication US9212182B2, “Bicyclic sulfonamide compounds as sodium channel inhibitors” (AMGEN INC., priority 2013, dated 2015)
pIC50: −log10 of the molar value. Like-named read-outs stand apart in the source and are kept apart here.

Target: Nav 1.7 (Homo sapiens (Human), UniProt Q15858)
Experiment: in-vitro Nav 1.7 PX (IC50)
Type: cell-based

Sequence of Nav 1.7 (Q15858 whole entry): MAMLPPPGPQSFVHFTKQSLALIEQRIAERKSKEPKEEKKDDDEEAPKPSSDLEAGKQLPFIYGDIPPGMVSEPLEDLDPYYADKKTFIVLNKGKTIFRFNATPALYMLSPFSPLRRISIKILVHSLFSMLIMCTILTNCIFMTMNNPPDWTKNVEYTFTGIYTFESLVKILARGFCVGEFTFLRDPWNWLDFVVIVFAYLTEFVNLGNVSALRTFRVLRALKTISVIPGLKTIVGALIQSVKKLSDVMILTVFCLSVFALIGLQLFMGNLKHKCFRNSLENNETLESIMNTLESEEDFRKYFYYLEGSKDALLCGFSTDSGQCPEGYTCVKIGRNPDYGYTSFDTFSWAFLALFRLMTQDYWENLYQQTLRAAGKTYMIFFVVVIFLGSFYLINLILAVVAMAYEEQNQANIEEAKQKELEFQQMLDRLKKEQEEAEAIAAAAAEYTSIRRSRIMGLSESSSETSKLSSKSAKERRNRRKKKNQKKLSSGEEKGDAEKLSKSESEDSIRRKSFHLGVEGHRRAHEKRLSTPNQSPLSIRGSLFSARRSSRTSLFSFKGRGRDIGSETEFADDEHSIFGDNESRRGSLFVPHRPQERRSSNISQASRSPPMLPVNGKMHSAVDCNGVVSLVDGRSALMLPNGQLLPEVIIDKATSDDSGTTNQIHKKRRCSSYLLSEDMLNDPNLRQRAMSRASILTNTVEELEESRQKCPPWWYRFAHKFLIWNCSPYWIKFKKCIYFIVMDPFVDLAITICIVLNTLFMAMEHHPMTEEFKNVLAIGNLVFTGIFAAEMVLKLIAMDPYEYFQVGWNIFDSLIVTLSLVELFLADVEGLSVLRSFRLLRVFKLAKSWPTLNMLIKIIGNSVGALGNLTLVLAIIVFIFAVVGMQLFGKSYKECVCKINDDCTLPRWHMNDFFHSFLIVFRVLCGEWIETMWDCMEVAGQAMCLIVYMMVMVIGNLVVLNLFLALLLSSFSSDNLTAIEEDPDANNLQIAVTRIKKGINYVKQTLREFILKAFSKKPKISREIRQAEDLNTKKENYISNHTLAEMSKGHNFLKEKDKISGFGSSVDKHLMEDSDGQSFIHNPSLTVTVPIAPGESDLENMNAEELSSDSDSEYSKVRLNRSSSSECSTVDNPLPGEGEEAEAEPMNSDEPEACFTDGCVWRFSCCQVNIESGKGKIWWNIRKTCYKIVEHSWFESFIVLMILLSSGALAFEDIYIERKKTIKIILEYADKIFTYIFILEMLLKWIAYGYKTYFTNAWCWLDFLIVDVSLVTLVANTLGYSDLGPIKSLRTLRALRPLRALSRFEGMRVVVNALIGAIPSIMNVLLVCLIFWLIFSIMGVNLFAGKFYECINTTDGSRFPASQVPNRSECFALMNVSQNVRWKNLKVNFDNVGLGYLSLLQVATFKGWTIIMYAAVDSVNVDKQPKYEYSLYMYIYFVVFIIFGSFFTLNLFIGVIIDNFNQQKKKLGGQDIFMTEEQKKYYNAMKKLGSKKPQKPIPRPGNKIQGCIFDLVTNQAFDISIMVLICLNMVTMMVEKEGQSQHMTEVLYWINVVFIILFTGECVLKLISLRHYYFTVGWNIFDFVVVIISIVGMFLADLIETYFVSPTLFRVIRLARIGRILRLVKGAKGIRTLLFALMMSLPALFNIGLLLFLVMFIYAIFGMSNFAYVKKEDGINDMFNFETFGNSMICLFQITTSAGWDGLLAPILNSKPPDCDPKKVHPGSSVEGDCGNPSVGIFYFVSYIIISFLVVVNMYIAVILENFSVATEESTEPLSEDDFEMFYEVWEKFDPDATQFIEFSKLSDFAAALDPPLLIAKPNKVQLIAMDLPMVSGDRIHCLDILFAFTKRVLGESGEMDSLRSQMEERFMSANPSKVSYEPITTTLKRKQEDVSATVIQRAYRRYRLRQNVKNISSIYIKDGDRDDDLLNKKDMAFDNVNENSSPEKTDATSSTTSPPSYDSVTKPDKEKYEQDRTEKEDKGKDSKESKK

SMILES	pIC50	pIC50 (in-vitro PatchXpress (PX))
COc1cc(-c2ccc(Cl)c(C)c2)c(Cl)cc1-n1c(=O)ccc2cc(S(=O)(=O)Nc3ccon3)ccc21 (atropisomer, axis not shown; (M)) [Example 472, (M)-1-(2,4′-dichloro-5-methoxy-3′-methyl-[1,1′-biphenyl]-4-yl)-N-(isoxazol-3-yl)-2-oxo-1,2-dihydroquinoline-6-sulfonamide]	6.10	
COc1cc(-c2cc(F)cc(Cl)c2)c(F)cc1-n1c(=O)ccc2cc(S(=O)(=O)Nc3ccon3)ccc21 (atropisomer, axis not shown; (M)) [Example 478, (M)-1-(3′-chloro-2,5′-difluoro-5-methoxy-4-biphenylyl)-N-3-isoxazolyl-2-oxo-1,2-dihydro-6-quinolinesulfonamide]	6.09	
COc1cc(-c2cc(F)cc(Cl)c2)ccc1-n1c(=O)ccc2cc(S(=O)(=O)Nc3cccnn3)ccc21 (atropisomer, axis not shown; (M)) [Example 481, (M)-1-(3′-chloro-5′-fluoro-3-methoxy-4-biphenylyl)-2-oxo-N-3-pyridazinyl-1,2-dihydro-6-quinolinesulfonamide]		5.51
COc1ccc(-c2cccc(F)c2)cc1-n1c(=O)ccc2cc(S(=O)(=O)Nc3ccon3)ccc21 (atropisomer, axis not shown; (M)) [Example 484, (M)-1-(3′-fluoro-4-methoxy-3-biphenylyl)-N-3-isoxazolyl-2-oxo-1,2-dihydro-6-quinolinesulfonamide]	4.49	
COc1cc(-c2cccc(C#N)c2)c(F)cc1-n1c(=O)ccc2cc(S(=O)(=O)Nc3ccon3)ccc21 (atropisomer, axis not shown; (M)) [Example 499, (M)-1-(3′-cyano-2-fluoro-5-methoxy-4-biphenylyl)-N-3-isoxazolyl-2-oxo-1,2-dihydro-6-quinolinesulfonamide]		4.60
COc1cc(Cl)cc(-c2cc(OC)c(-n3c(=O)ccc4cc(S(=O)(=O)Nc5ccon5)ccc43)cc2F)c1 (atropisomer, axis not shown; (M)) [Example 502, (M)-1-(3′-chloro-2-fluoro-5,5′-dimethoxy-4-biphenylyl)-N-3-isoxazolyl-2-oxo-1,2-dihydro-6-quinolinesulfonamide]		5.91
COc1cc(-c2ccc(Cl)c(F)c2)c(F)cc1-n1c(=O)ccc2cc(S(=O)(=O)Nc3ccon3)ccc21 (atropisomer, axis not shown; (M)) [Example 504, (M)-1-(4′-chloro-2,3′-difluoro-5-methoxy-4-biphenylyl)-N-3-isoxazolyl-2-oxo-1,2-dihydro-6-quinolinesulfonamide]		8.10
COc1cc(-c2cc(C)cc(Cl)c2)c(F)cc1-n1c(=O)ccc2cc(S(=O)(=O)Nc3ccon3)ccc21 (atropisomer, axis not shown; (M)) [Example 507, (M)-1-(3′-chloro-2-fluoro-5-methoxy-5′-methyl-4-biphenylyl)-N-3-isoxazolyl-2-oxo-1,2-dihydro-6-quinolinesulfonamide]		6.00
COc1cc(-c2ccc(Cl)c(C#N)c2)c(F)cc1-n1c(=O)ccc2cc(S(=O)(=O)Nc3ccon3)ccc21 (atropisomer, axis not shown; (M)) [Example 509, (M)-1-(4′-chloro-3′-cyano-2-fluoro-5-methoxy-4-biphenylyl)-N-3-isoxazolyl-2-oxo-1,2-dihydro-6-quinolinesulfonamide]		5.78
COc1cc(-c2ccc(C)c(F)c2)c(F)cc1-n1c(=O)ccc2cc(S(=O)(=O)Nc3ccon3)ccc21 (atropisomer, axis not shown; (M)) [Example 511, (M)-1-(2,3′-difluoro-5-methoxy-4′-methyl-4-biphenylyl)-N-3-isoxazolyl-2-oxo-1,2-dihydro-6-quinolinesulfonamide]		5.06
COc1cc(-c2cc(F)cc(F)c2F)c(F)cc1-n1c(=O)ccc2cc(S(=O)(=O)Nc3ccon3)ccc21 (atropisomer, axis not shown; (M)) [Example 515, (M)-N-3-isoxazolyl-2-oxo-1-(2,2′,3′,5′-tetrafluoro-5-methoxy-4-biphenylyl)-1,2-dihydro-6-quinolinesulfonamide]		5.29
